Source: the NIST ThermoML archive (doi:10.1016/j.tca.2014.08.016)
± gives the expanded uncertainty stated by the source.

Test: xn = mol fraction of the nth substance listed
Settings: Liquid; for mass density: Buoyancy - hydrostatic balance with magnetic suspension - one sinker; for viscosity: Falling or rolling sphere viscometry

C=CCCCCCC [oct-1-ene] + C=CCCCC
Settings | mass density [kg/m3] | viscosity [mPa·s]
298.15 K, 98 kPa, x1 = 0.2 | 685.08 ± 2.1 | 0.317 ± 0.007
298.15 K, 98 kPa, x1 = 0.4823 | 696.22 ± 2.1 | 0.36 ± 0.008
298.15 K, 98 kPa, x1 = 0.6923 | 705.6 ± 2.2 | 0.411 ± 0.01
298.15 K, 24510 kPa, x1 = 0.2 | 709.99 ± 2.2 | 0.395 ± 0.009
298.15 K, 24510 kPa, x1 = 0.4823 | 720.99 ± 2.2 | 0.444 ± 0.01
298.15 K, 24510 kPa, x1 = 0.6923 | 729.5 ± 2.2 | 0.511 ± 0.012
298.15 K, 49030 kPa, x1 = 0.2 | 727.77 ± 2.2 | 0.473 ± 0.011
298.15 K, 49030 kPa, x1 = 0.4823 | 736.94 ± 2.3 | 0.537 ± 0.013
298.15 K, 49030 kPa, x1 = 0.6923 | 745.31 ± 2.3 | 0.618 ± 0.015
298.15 K, 98060 kPa, x1 = 0.2 | 754.11 ± 2.3 | 0.644 ± 0.015
298.15 K, 98060 kPa, x1 = 0.4823 | 765.67 ± 2.4 | 0.737 ± 0.017
298.15 K, 98060 kPa, x1 = 0.6923 | 771.37 ± 2.4 | 0.859 ± 0.02
298.15 K, 196130 kPa, x1 = 0.2 | 792.06 ± 2.4 | 1.053 ± 0.025
298.15 K, 196130 kPa, x1 = 0.4823 | 801.39 ± 2.5 | 1.225 ± 0.029
298.15 K, 196130 kPa, x1 = 0.6923 | 806.92 ± 2.5 | 1.47 ± 0.035
302.9 K, 98 kPa, x1 = 0.6923 | 703 ± 2.1 | 0.396 ± 0.009
303.67 K, 98 kPa, x1 = 0.4823 | 692.48 ± 2.1 | 0.347 ± 0.008
305.25 K, 98 kPa, x1 = 0.2 | 679.54 ± 2.1 | 0.304 ± 0.007
312.9 K, 98 kPa, x1 = 0.6923 | 696.34 ± 2.1 | 0.36 ± 0.008
313.35 K, 98 kPa, x1 = 0.4823 | 685.54 ± 2.1 | 0.319 ± 0.008
313.65 K, 98 kPa, x1 = 0.2 | 672.69 ± 2.1 | 0.283 ± 0.007
322.39 K, 196130 kPa, x1 = 0.6923 | 796.19 ± 2.5 | 1.133 ± 0.027
322.63 K, 98060 kPa, x1 = 0.6923 | 759.23 ± 2.3 | 0.688 ± 0.016
322.7 K, 49030 kPa, x1 = 0.6923 | 730.47 ± 2.2 | 0.497 ± 0.012
322.74 K, 24510 kPa, x1 = 0.6923 | 712.73 ± 2.2 | 0.41 ± 0.01
322.86 K, 98 kPa, x1 = 0.6923 | 688.08 ± 2.1 | 0.325 ± 0.008
322.95 K, 196130 kPa, x1 = 0.2 | 781.57 ± 2.4 | 0.842 ± 0.02
323.14 K, 98060 kPa, x1 = 0.2 | 743.21 ± 2.3 | 0.525 ± 0.012
323.23 K, 24510 kPa, x1 = 0.2 | 692.21 ± 2.1 | 0.323 ± 0.008
323.24 K, 49030 kPa, x1 = 0.2 | 714.09 ± 2.2 | 0.388 ± 0.009
323.28 K, 98 kPa, x1 = 0.2 | 664.43 ± 2 | 0.256 ± 0.006
323.53 K, 196130 kPa, x1 = 0.4823 | 791.05 ± 2.4 | 0.962 ± 0.023
323.71 K, 98060 kPa, x1 = 0.4823 | 753.36 ± 2.3 | 0.589 ± 0.014
323.72 K, 49030 kPa, x1 = 0.4823 | 723.85 ± 2.2 | 0.434 ± 0.01
323.73 K, 24510 kPa, x1 = 0.4823 | 705.99 ± 2.2 | 0.358 ± 0.008
323.86 K, 98 kPa, x1 = 0.4823 | 678.22 ± 2.1 | 0.285 ± 0.007
354.41 K, 196130 kPa, x1 = 0.2 | 767.99 ± 2.4 | 0.675 ± 0.016
354.53 K, 196130 kPa, x1 = 0.4823 | 778.99 ± 2.4 | 0.757 ± 0.018
354.58 K, 98060 kPa, x1 = 0.4823 | 737.84 ± 2.3 | 0.478 ± 0.011
354.59 K, 49030 kPa, x1 = 0.4823 | 705.39 ± 2.2 | 0.354 ± 0.008
354.61 K, 24510 kPa, x1 = 0.4823 | 683.97 ± 2.1 | 0.291 ± 0.007
354.84 K, 98060 kPa, x1 = 0.2 | 727.23 ± 2.2 | 0.428 ± 0.01
355.02 K, 24510 kPa, x1 = 0.2 | 671.58 ± 2.1 | 0.259 ± 0.006
355.04 K, 49030 kPa, x1 = 0.2 | 694.07 ± 2.1 | 0.317 ± 0.007
355.16 K, 98060 kPa, x1 = 0.6923 | 741.82 ± 2.3 | 0.544 ± 0.013
355.27 K, 49030 kPa, x1 = 0.6923 | 713.02 ± 2.2 | 0.398 ± 0.009
355.35 K, 196130 kPa, x1 = 0.6923 | 782.46 ± 2.4 | 0.876 ± 0.021
355.44 K, 24510 kPa, x1 = 0.6923 | 691.53 ± 2.1 | 0.327 ± 0.008
390.42 K, 196130 kPa, x1 = 0.4823 | 763 ± 2.4 | 0.614 ± 0.014
390.6 K, 196130 kPa, x1 = 0.6923 | 764.29 ± 2.4 | 0.684 ± 0.016
390.61 K, 98060 kPa, x1 = 0.4823 | 718.3 ± 2.2 | 0.392 ± 0.009
390.66 K, 24510 kPa, x1 = 0.6923 | 668.32 ± 2 | 0.258 ± 0.006
390.68 K, 98060 kPa, x1 = 0.6923 | 722.16 ± 2.2 | 0.433 ± 0.01
390.73 K, 24510 kPa, x1 = 0.4823 | 661.95 ± 2 | 0.233 ± 0.006
390.76 K, 49030 kPa, x1 = 0.4823 | 683.17 ± 2.1 | 0.286 ± 0.007
390.89 K, 49030 kPa, x1 = 0.6923 | 690.6 ± 2.1 | 0.319 ± 0.008
395.05 K, 196130 kPa, x1 = 0.2 | 750.63 ± 2.3 | 0.535 ± 0.013
395.31 K, 98060 kPa, x1 = 0.2 | 706.62 ± 2.2 | 0.345 ± 0.008
395.33 K, 49030 kPa, x1 = 0.2 | 668.64 ± 2 | 0.253 ± 0.006
395.52 K, 24510 kPa, x1 = 0.2 | 641.62 ± 2 | 0.205 ± 0.005
432.98 K, 196130 kPa, x1 = 0.2 | 733.67 ± 2.2 | 0.451 ± 0.011
433.17 K, 196130 kPa, x1 = 0.6923 | 744.1 ± 2.3 | 0.549 ± 0.013
433.2 K, 98060 kPa, x1 = 0.6923 | 698.66 ± 2.1 | 0.349 ± 0.008
433.33 K, 49030 kPa, x1 = 0.6923 | 664.02 ± 2 | 0.255 ± 0.006
433.38 K, 24510 kPa, x1 = 0.6923 | 641.38 ± 2 | 0.204 ± 0.005
433.51 K, 98060 kPa, x1 = 0.2 | 682.68 ± 2.1 | 0.289 ± 0.007
433.58 K, 49030 kPa, x1 = 0.2 | 642.37 ± 2 | 0.213 ± 0.005
433.62 K, 24510 kPa, x1 = 0.2 | 614.08 ± 1.9 | 0.169 ± 0.004
435.46 K, 196130 kPa, x1 = 0.4823 | 741.63 ± 2.3 | 0.489 ± 0.012
435.49 K, 24510 kPa, x1 = 0.4823 | 631.36 ± 1.9 | 0.184 ± 0.004
435.61 K, 98060 kPa, x1 = 0.4823 | 693.82 ± 2.1 | 0.318 ± 0.008
435.7 K, 49030 kPa, x1 = 0.4823 | 656.28 ± 2 | 0.232 ± 0.005
467.82 K, 196130 kPa, x1 = 0.4823 | 725.29 ± 2.2 | 0.447 ± 0.011
467.87 K, 196130 kPa, x1 = 0.2 | 715.63 ± 2.2 | 0.403 ± 0.009
467.95 K, 49030 kPa, x1 = 0.4823 | 636.15 ± 1.9 | 0.207 ± 0.005
467.96 K, 24510 kPa, x1 = 0.4823 | 610.74 ± 1.9 | 0.162 ± 0.004
468.04 K, 98060 kPa, x1 = 0.2 | 661.09 ± 2 | 0.262 ± 0.006
468.06 K, 98060 kPa, x1 = 0.4823 | 675.8 ± 2.1 | 0.285 ± 0.007
468.07 K, 49030 kPa, x1 = 0.2 | 620.58 ± 1.9 | 0.19 ± 0.005
468.18 K, 24510 kPa, x1 = 0.2 | 589.18 ± 1.8 | 0.148 ± 0.004
469.83 K, 98060 kPa, x1 = 0.6923 | 677.9 ± 2.1 | 0.311 ± 0.007
469.84 K, 196130 kPa, x1 = 0.6923 | 725.11 ± 2.2 | 0.482 ± 0.011
470.05 K, 49030 kPa, x1 = 0.6923 | 641.64 ± 2 | 0.224 ± 0.005
470.16 K, 24510 kPa, x1 = 0.6923 | 618.99 ± 1.9 | 0.176 ± 0.004
